Where a SMILES comes first, the peptide text is derived from it. [ ]: non-standard residue; d: D form.
Key:
NK-1 receptor = target: T1, NK-1 receptor (Cavia porcellus, UniProt P30547); assay: NK-1 receptor binding (125I-Bolton-Hunter substance P) in guinea pig lung membranes; settings: 0.1 nM 125I-Bolton-Hunter Lys-3 substance P, mean ± S.E.M.
T1 construct: tissue Keystone Biologicals, Cleveland, OH; host or cells: guinea pig lung
Experimental: Receptor binding assays were performed in crude tissue membranes. The NK-1 receptor binding affinity of proposed tachykinin antagonists was evaluated in guinea pig lungs (Keystone Biologicals, Cleveland, OH, kept frozen at -80° C. until use). Affinity for the NK-2 receptor was evaluated in HSKR-1 cells which are mouse 3T3 fibroblasts expressing the human jejunal NK-2 receptor. Tissues or cells were homogenized with a Polytron in 15 volumes of 50 mM Tris-HCl buffer (pH 7.4, 4° C.) containing 120 mM NaCl and 5 mM KCl and centrifuged at 48,000×g for 12 min. at 4° C. The pellet was resuspended in 15 volumes of 50 mM Tris-HCl buffer containing 10 mM EDTA and 300 mM KCl then set on ice for 30 min. The suspension was cetrifuged as above and the pellet washed by resuspension and cetrifugation two additional times in 50 mM Tris-HCl buffer (pH 7.4, 4° C.). The final pellet was resuspended in a concentration of 20 mg/ml in incubation buffer then kept at room temperature for at least 15 min prior to use. Receptor binding was initiated by addition of 250 μl membrane preparation (final protein concentration; lungs=286 μg/tube, HSKR-1 cells=100 μg/tube) in duplicate to 0.1 nM of the following radioligands: for NK-1 receptor assays, ^125 I-Bolton-Hunter Lys-3 labeled substance P (New England Nuclear, specific activity, 2200 Ci/mmol); for NK-2 receptor assays, ^125 iodohistidyl-1-neurokinin A (Amersham, specific activity, 2000 Ci/mmol) in a final volume of 500 μl of buffer containing 50 mM Tris-HCl (pH 7.4 at room temperature), 0.1% bovine serum albumin, 2 mM MnCl2, 40 μg/ml bacitracin, 4 μg/ml leupeptin and chymostatin, 1 μM thiorphan and various doses of the tachykinin antagonists. Incubations were performed at room temperature for 90 min (NK-1 receptor assays) or 2 hr (NK-2 receptor assays); binding was terminated by addition of 50 mM Tris-HCl buffer (pH 7.4, 4° C.) and filtration under vacuum through GF/B filters presoaked with 0.1% polyethyleneimine (NK-1 receptor assays) or 0.5% bovine serum albumin (NK-2 receptor assays). Nonspecific binding was defined as binding in the presence of 1 μM substance P (NK-1 receptor assays) or neurokinin A (NK-2 receptor assays) (Peptides International, Inc., Louisville, Ky.). Specific binding was calculated by subtracting nonspecific binding from total binding and corresponded to 70-90% of total binding. Data were analyzed and IC50 values generated by nonlinear regression using an iterative curve fitting program (GraphPAD Inplot, San Diego, Calif.). Protein was determined by the method of Lowry.

mice = settings: mouse, in vivo
Experimental: The analgesic potential of the compounds of this invention was measured using a modification of the method of Whittle (Br. J. Pharmacol. 22:2246, 1964). Groups of 5-10 male mice received an intrathecal injection of cyclo[Tyr-trp-Leu-Arg-Trp-Gly] SEQ. ID 6 (0.013-4μg) or ethanol/saline vehicle in a volume of 5 μl. After 5 minutes, mice received an intraperitoneal injection of 0.4 ml acetic acid (0.25% v/v). […] To calculate an ED50 (dose producing analgesia in 50% of the mice), four or more doses of compound were tested and the results subjected to quantal analysis with an appropriate computer program.

T1 sequence (P30547 whole entry): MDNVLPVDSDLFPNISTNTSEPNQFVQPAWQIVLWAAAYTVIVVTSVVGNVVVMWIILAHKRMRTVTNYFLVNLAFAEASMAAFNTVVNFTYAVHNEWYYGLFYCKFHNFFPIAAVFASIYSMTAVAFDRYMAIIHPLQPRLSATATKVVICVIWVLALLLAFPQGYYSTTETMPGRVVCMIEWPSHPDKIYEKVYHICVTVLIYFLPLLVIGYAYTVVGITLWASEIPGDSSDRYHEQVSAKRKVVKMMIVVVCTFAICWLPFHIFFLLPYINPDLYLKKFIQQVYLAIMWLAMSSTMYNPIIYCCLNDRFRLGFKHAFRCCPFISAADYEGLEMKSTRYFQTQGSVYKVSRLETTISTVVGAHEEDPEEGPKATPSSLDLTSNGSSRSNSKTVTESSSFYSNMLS

In the case of `CC(C)C[C@@H]1NC(=O)[C@@H](Cc2c[nH]c3ccccc23)NC(=O)[C@H](Cc2ccc(O)cc2)NC(=O)CNC(=O)[C@H](Cc2c[nH]c3ccccc23)NC(=O)[C@H](CCCNC(=N)N)NC1=O` [cyclo[Tyr--trp--Leu--Arg--Trp--Gly], cyclo[Tyr-trp-Leu-Arg-Trp-Gly]] (cyclo(GY[dW]LRW)), the IC50 (NK-1 receptor) is reported as 6190 ± 277 nM and the “ED50 (dose producing analgesia in 50% of the mice)” value (mice) is reported as 0.18 µg.

— US5521156A, “Cyclic neurokinin A antagonists” (priority 1994, dated 1996)
